Assay results from article PMC11360180, “Enhancement of Antimicrobial Function by L/D-Lysine Substitution on a Novel Broad-Spectrum Antimicrobial Peptide, Phylloseptin-TO2: A Structure-Related Activity Research Study” (Pharmaceutics, 2024).
“And” between values parts separate entries of the source, which are not always exact repeats. Identical values can stand only once. Like-named read-outs stand apart in the source and are kept apart here. Where a SMILES comes first, the peptide text is derived from it. [ ]: non-standard residue; d: D form.

How the values were obtained:
MRSA (NCTC 12493) = format: cell-based, methicillin-resistant Staphylococcus aureus
Description: (§1) Seven microorganism strains were used to preliminarily evaluate the antimicrobial activity of PSTO2 and its analogues, including Staphylococcus aureus (S. aureus) (ATCC® 6538), methicillin-resistant Staphylococcus aureus (MRSA) (NCTC® 12493), Enterococcus faecalis (E. faecalis) (NCTC® 12697), E. coli (ATCC® 8739), Klebsiella pneumonia (K. pneumonia) (ATCC® 43816), Pseudomonas aeruginosa (P. aeruginosa) (ATCC® CRM 9027), Acinetobacter baumanni (A. baumanni) (BAA® 747), and Candida albicans (C. albicans) (ATCC® 10231). In this study, the strains were cultured in Mueller–Hinton broth (MHB), nutrient broth (NB), and yeast–peptone–dextrose broth (YPD-B) correspondingly at 37 °C, with shaking at 120 rpm. Each peptide was dissolved from 128 μM to 1 μM and mixed with the bacterium at 5 × 10^5 CFU/mL. In this process, bacteria with culture medium were used as the growth control group; PBS was set up as the vehicle control group; sterile culture medium was used as the blank control group; and Norfloxacin at a concentration of 2 mg/mL and amphotericin B at a concentration of 1 mg/mL were set up as the positive control group for bacteria and fungi, respectively.
(§2) After being incubated for 24 h, a Synergy HT plate reader (Bio-Tek, Shoreline, WA, USA) was used to detect the absorbance of each well in the 96-well plate at λ = 550 nm. The concentration at which no visible turbidity could be recorded was the MIC value. Beginning from the MIC value, 10 µL of solution in each clear well was dropped on the sterile agar plates. The plate was checked the next day for colony formation, and the lowest concentration at which no colony growing was recorded as an MBC value.

[1] = system: P. aeruginosa (ATCC 9027); format: cell-based, Pseudomonas aeruginosa
Description: as §1, §2

S. aureus (ATCC 6538) = format: cell-based, Staphylococcus aureus
Description: as §1, §2

E. coli (ATCC 8739) = format: cell-based, Escherichia coli
Description: as §1, §2

[2] = system: K. pneumonia (ATCC 43816); format: cell-based, Klebsiella pneumonia
Description: as §1, §2

C. albicans = format: cell-based, Candida albicans; settings: 24 h
Description: as §1, §2

A. baumannii (BAA 747) = format: cell-based, Acinetobacter baumanni; settings: BAA 747, 24 h
Description: as §1, §2

horse red blood cells = format: cell-based
Description: To assess the haemolytic activity of PSTO2 and its analogues, 2% fresh defibrinated horse red blood cells (TCS Biosciences Ltd., Buckingham, UK) were acquired after being washed and resuspended in sterile PBS. Each peptide was dissolved in PBS to prepare solutions with concentrations ranging from 2 µM to 1024 µM. Subsequently, 100 µL of each peptide solution was mixed with 100 µL of the red blood cell suspension. The red blood cells treated with 1% triton X-100 and sterile PBS in equivalent volumes were set up as the positive and negative control groups, respectively. Then, all the samples were incubated at 37 °C for 2 h. Thereafter, the samples were centrifuged at 900× g for 10 min. Finally, 100 µL of supernatant of each sample was transferred into a 96-well plate, and the absorbance was recorded by a Synergy HT plate reader (Bio-Tek, Shoreline, WA, USA) at a wavelength of 570. The following equation was used to calculate haemolysis activity:Haemolysis activity = (Sample absorbance − Ab)/(Ap − Ab) × 100% where Ab refers to the mean value of absorbance of the negative control (incubated with PBS only), and Ap refers to the mean absorbance value of the positive control (incubated with triton X-100).

[3] = clear wells plated on agar, no colony

Compound | MBC (MRSA (NCTC 12493); NCTC 12493, 24 h) | MIC (MRSA (NCTC 12493); NCTC 12493, 24 h) | MBC ([1]; ATCC 9027, 24 h) | MIC ([1]; ATCC 9027, 24 h) | MBC (C. albicans) | MIC (C. albicans) | MBC (S. aureus (ATCC 6538); ATCC 6538, 24 h) | MIC (S. aureus (ATCC 6538); ATCC 6538, 24 h) | MBC (E. coli (ATCC 8739); ATCC 8739, 24 h) | MIC (E. coli (ATCC 8739); ATCC 8739, 24 h) | MBC (A. baumannii (BAA 747)) | MIC (A. baumannii (BAA 747)) | HC10 (horse red blood cells) | MBC ([2]; ATCC 43816, 24 h) | MIC ([2]; ATCC 43816, 24 h) | other results
CC[C@H](C)[C@H](NC(=O)CN)C(=O)NCC(=O)N[C@@H](C)C(=O)N[C@H](C(=O)N[C@@H](CC(C)C)C(=O)N[C@@H](CCCCN)C(=O)N[C@H](C(=O)N[C@@H](CC(C)C)C(=O)N[C@H](C(=O)N[C@H](C(=O)NCC(=O)N[C@@H](CC(C)C)C(=O)N1CCC[C@H]1C(=O)N[C@@H](C)C(=O)N[C@@H](CC(C)C)C(=O)N[C@H](C(=O)N[C@@H](CO)C(=O)N[C@@H](Cc1c[nH]c2ccccc12)C(=O)N[C@H](C(=O)N[C@@H](CCCCN)C(=O)N[C@@H](CCCNC(=N)N)C(=O)N[C@@H](CCCCN)C(=O)N[C@@H](CCCNC(=N)N)C(=O)N[C@@H](CCC(N)=O)C(=O)N[C@@H](CCC(N)=O)C(N)=O)[C@@H](C)CC)[C@@H](C)CC)[C@@H](C)O)[C@@H](C)O)C(C)C)C(C)C [Mellitin, melittin, reference compound] |  |  |  |  |  |  |  |  |  |  |  |  |  |  |  | MBC (MRSA (NCTC 12493); [3]): 2 µM; MBC [1, 3]: 32 µM; MBC (S. aureus (ATCC 6538); [3]): 5.7 µg/mL and 2 µM; MBC (E. coli (ATCC 8739); [3]): 4 µM; MIC ([2]; 5 × 10^5 CFU/mL, 24 h, absorbance 550 nm): 32 µM; MBC [2, 3]: 32 µM
CC[C@H](C)[C@H](NC(=O)[C@H](C)NC(=O)[C@@H](CCCCN)NC(=O)[C@@H]1CCCN1C(=O)[C@@H](NC(=O)[C@H](CC(C)C)NC(=O)[C@H](CO)NC(=O)[C@H](CC(C)C)NC(=O)[C@@H](N)Cc1ccccc1)[C@@H](C)CC)C(=O)N[C@H](CCCCN)C(=O)N[C@@H](C)C(=O)N[C@H](C(=O)N[C@@H](CO)C(=O)N[C@@H](C)C(=O)N[C@@H](CC(C)C)C(=O)N[C@@H](C)C(=O)N[C@@H](CCCCN)C(=O)N[C@H](CCCCN)C(=O)N[C@@H](CC(C)C)C(N)=O)C(C)C [Peptide D1] (H-FLSLIP[dK]AI[dK]AVSALAK[dK]L-NH2) | >128 µM | >128 µM | 32 µM | 32 µM | >128 µM | >128 µM | >128 µM | >128 µM | 32 µM | 32 µM | 32 µM | 32 µM | Not significant | 128 µM | 128 µM | 
CC[C@H](C)[C@H](NC(=O)[C@H](C)NC(=O)[C@@H](CCCCN)NC(=O)[C@@H]1CCCN1C(=O)[C@@H](NC(=O)[C@H](CC(C)C)NC(=O)[C@H](CO)NC(=O)[C@H](CC(C)C)NC(=O)[C@@H](N)Cc1ccccc1)[C@@H](C)CC)C(=O)N[C@H](CCCCN)C(=O)N[C@@H](C)C(=O)N[C@H](C(=O)N[C@H](CCCCN)C(=O)N[C@@H](C)C(=O)N[C@@H](CC(C)C)C(=O)N[C@@H](C)C(=O)N[C@H](CCCCN)C(=O)N[C@H](CCCCN)C(=O)N[C@@H](CC(C)C)C(N)=O)C(C)C [Peptide D2] (H-FLSLIP[dK]AI[dK]AV[dK]ALA[dK][dK]L-NH2) | >128 µM | >128 µM | 16 µM | 16 µM | >128 µM | >128 µM | >128 µM | >128 µM | 32 µM | 16 µM | 16 µM | 16 µM | Not significant | 128 µM | 128 µM | 
